In patent US11065227B2, “Use of cannabinoids in the treatment of multiple myeloma” (GW Research Limited, priority 2016, dated 2021):
Read-outs that look alike come from different tables or passages of the source.

Assays:
U266 cell line [1] = assay: MTT cell viability assay, U266; conditions: Homo sapiens
Method: (§1) U266 and RPM18226 (RPMI) MM cell lines were purchased from ATCC (LGC Standards, Milan, IT). Cell authentication was performed by IST (Genova, Italy). Cell lines were cultured in RPMI1640 medium (Lonza, Milan, IT) supplemented with 10% foetal bovine serum (FBS), 2 mM L-glutamine, 100 IU/ml penicillin, 100 μg/ml streptomycin and 1 mM sodium pyruvate. Cell lines were maintained at 37° C. with 5% CO2 and 95% humidity.
(§2) U266 and RPMI cell lines (4×10^4 cells/ml) were seeded in 96-well plates, in a final volume of 100 μl/well. After 1 day of incubation, compounds or vehicles were added. At least four replicates were used for each treatment.
(§3) At the indicated time point, cell viability was assessed by adding 0.8 mg/ml of 3-[4,5-dimethylthiazol-2-yl]-2,5 diphenyl tetrazolium bromide (MTT) (Sigma Aldrich) to the media. […]
(§4) The absorbance of the samples against a background control (medium alone) was measured at 570 nm using an ELISA reader microliter plate (BioTek Instruments, Winooski, Vt., USA). Synergistic activity of the THC-CBD combinations was determined by the isobologram and combination index (CI) methods (CompuSyn Software, ComboSyn, Inc. Paramus, N J 2007). The CI was used to express synergism (CI<1), additivity (CI=1) or antagonism (CI>1) and was calculated according to the standard isobologram equation (Chou, 2006).

RPMI cell line [2] = assay: MTT cell viability assay, RPMI
Method: as §1, §2, §3, §4

U266 and RPMI cell lines [3] = assay: MTT cell viability assay, statements for both MM cell lines; conditions: for CB2 receptor dependence of cytotoxic effect: pre-treatment with 20 μM AM630 (CB2 antagonist), FIG. 2
Method: as §1, §2
At the indicated time point, cell viability was assessed by adding 0.8 mg/ml of 3-[4,5-dimethylthiazol-2-yl]-2,5 diphenyl tetrazolium bromide (MTT) (Sigma Aldrich) to the media. After 3 h, the plates were centrifuged, the supernatant was removed, and the pellet was solubilized with 100 μl/well DMSO.
as §4

[4] = system: LC3-II/LC3-1 and p62 in U266 and RPMI cell lines; assay: Western blot of autophagy markers LC3 and p62; type: cell-based; conditions: 12.5 μM; 24 h of treatment; FIG. 4A
Method: (§5) U266 and RPMI cell lines were lysed in buffer containing protease inhibitor cocktail (Sigma Aldrich). Lysates were resolved by sodium dodecyl sulphate polyacrylamide gel (8-14%) and transferred onto Hybond-C extra membranes (GE Healthcare, Munich, Germany). Non-specific binding sites were blocked with 5% low-fat dry milk in phosphate-buffered saline 0.1% Tween 20 for 1 h.
(§6) Blots were incubated with the primary Abs: anti-iβ5 subunit (1:1000, Cell Signalling, Denver, Colo., USA), rabbit anti-LC3 (2 μg/ml, Novus Biologicals, Littleton, Colo., USA), rabbit anti-caspase-3 (1:1000, Cell Signalling), rabbit anti-p62 (1:1000, Cell Signalling), rabbit anti-H2AX (1:1000, Cell Signalling) and mouse anti-glyceraldehydes-3-phosphate dehydrogenase (GAPDH, 1:3000, OriGene, Rockville, Md., USA) Abs overnight and then incubated with their respective HRP-conjugated anti-mouse and anti-rabbit (1:2000, Cell Signalling) Abs for 1 h. The detection was performed using the LiteAblot PLUS or the LiteAblot TURBO (EuroClone, Milano, Italy) kits, and densitometric analysis was carried out by a Chemidoc using the Quantity One software (Bio-Rad, Hercules, Calif., USA).
These experiments investigated if the increase in sub-G1 cell accumulation by THC-CBD combination treatment was due to an autophagic-cell death process. […]

[5] = system: γ-H2AX (H2AX) in U266 and RPMI cell lines; assay: Western blot of γ-H2AX; type: cell-based; conditions: 24 h post-treatments; both cell lines; FIG. 5C
Method: as §5, §6
The presence of γ-H2AX (H2AX), a phosphorylated variant of histone 2A that is associated with DNA double-strand breaks was investigated.

[6] = system: β5i subunit in U266 and RPMI cell lines; assay: β5i mRNA by qRT-PCR after IFN-γ; type: cell-based; conditions: after 24 h IFN-γ (100 U/ml); 12.5 μM; respect to IFN-γ alone; FIG. 6A
[7] = system: β5i subunit in U266 and RPMI cell lines; assay: β5i precursor and mature form by western blot after IFN-γ; type: cell-based; conditions: both cell lines, FIG. 6B
Method: as §5, §6
The potential role of the combination of THC-CBD in regulating the β5i subunit was investigated. U266 and RPMI cell lines were treated with CBD and THC, after 24 h exposure to IFN-γ (100 U/ml).

[8] = system: CXCR4 and CD147 in U266 and RPMI cell lines; assay: CXCR4 and CD147 expression by qRT-PCR; type: cell-based; conditions: alone and in combination; qRT-PCR and FACS; MM cell lines
U266 and RPMI cell lines [9] = assay: Cell migration assay (SDF-1, eCyPA chemotaxis); type: cell-based; conditions: 24 h treatment; single and in combination; FIG. 8C
U266 cell line [10] = conditions: Morelli et al. 2014, read-out: IC50, reducing cell viability; cited from earlier work
RPMI cell line [11] = conditions: Morelli et al. 2014, read-out: IC50, reducing cell viability; cited from earlier work
U266 = conditions: Morelli et al. 2014; cited from earlier work
RPMI = conditions: Morelli et al. 2014; cited from earlier work
U266 and RPMI cell lines [12] = assay: Cell cycle analysis by PI staining and FACS, both MM cell lines; type: cell-based; conditions: 12.5 μM, vs control, FIG. 3

Compound	cytotoxicity at 12.5 µM (U266 cell line [1]; U-266, read-out: decrease in cell viability)	cytotoxicity at 12.5 µM (RPMI cell line [2]; read-out: decrease in cell viability)	cytotoxic effects after pre-treatment with BAF1 (U266 and RPMI cell lines [3])	CB2 receptor dependence of cytotoxic effect (U266 and RPMI cell lines [3])	LC3-II/LC3-1 ratio [4]	levels of the phosphorylated form of H2AX [5]	β5i expression level (mRNA) induced by IFN-γ [6]	expression of precursor and mature form of β5i (protein) [7]	expression of CXCR4 and CD147 chemotactic receptors [8]	SDF-1-, eCyPA- and SDF-1/eCyPA-mediated chemotaxis compared with vehicle-treated cells (U266 and RPMI cell lines [9])	IC50 (U266 cell line [10])	IC50 (RPMI cell line [11])	blocking cell cycle in GO/G1 phase (U266)	blocking cell cycle in GO/G1 phase (RPMI)	IC50 (U266 cell line [1]; U-266, 72 h, read-out: IC50, cell viability)	IC50 (RPMI cell line [2]; 72 h, read-out: IC50, cell viability)	accumulation in sub-G1 phase (hypodiploid DNA) (U266 and RPMI cell lines [12]; 48 h post-treatment)	cell accumulation in G1 phase (U266 and RPMI cell lines [12]; starting from 24 h post-treatment)	cell viability (U266 and RPMI cell lines [3]; presence or absence of IFN-γ, 72 h post-treatment, data not shown)
C=C(C)[C@@H]1CCC(C)=C[C@H]1c1c(O)cc(CCCCC)cc1O [CBD, Cannabidiol]	20%	20%	reversed	not CB2 receptors dependent	slight increase	increase levels	low effects	low efficacy	reduce the expression	reduced	19.8 µM	22.4 µM	38%	42%					
CCCCCc1cc(O)c2c(c1)OC(C)(C)[C@@H]1CCC(C)=C[C@@H]21 [THC, Tetrahydrocannabinol]				not CB2 receptors dependent	no effect	increase levels	low effects	low efficacy	reduce the expression	reduced					39.5 µM	30.8 µM	accumulation in sub-G1 phase	induce cell accumulation in G1 phase	
CC(C)C[C@H](NC(=O)[C@H](CCc1ccccc1)NC(=O)CN1CCOCC1)C(=O)N[C@@H](Cc1ccccc1)C(=O)N[C@@H](CC(C)C)C(=O)[C@@]1(C)CO1 [CFZ, carfilzomib]									reduce the expression	reduced									reduced cell viability
